# Results taken from a melting point compilation (Tetko et al.; mined from patent text by program, amines drawn as free bases though some values may be those of a salt).
row,Structure (SMILES),melting point [°C]
1,CC(C(=O)O)c1cccc(Sc2ccccc2F)c1O (centres undefined),116 to 117
2,S=c1c(Br)coc2ccccc12,41
3,Nc1nc2c(s1)-c1c(cnn1-c1ccccc1)CC2,307 to 308
4,COC(=O)c1cc(F)c(O)nc1O,208 to 213
5,COc1ccnc(Cl)c1N,86 to 87
6,CCOC(=O)C1=C(C)NC(CSc2ccccc2)=C(C(=O)OCC)C1c1cccc([N+](=O)[O-])c1 (centres undefined),92 to 94
7,CC(C)(C)OC(=O)N1CCC(C2=C(C#N)C(c3cccc4nonc34)c3c[nH]nc3N2)CC1 (centres undefined),226
8,CN(C(N)=O)c1ccccc1S,73 to 75
9,O=C(C(CCCl)c1ccccc1)N1CCCCCC1 (centres undefined),50 to 53
10,CNC(=S)NCCCSc1ncccn1,120 to 121
11,CCCc1nc2c(N)nc(C)c(C)c2n1CC1(O)CCC1,180 to 181
12,Cc1ccc(NCC2CCN(C(C)C)CC2)c(C(=O)Nc2ccc(Cl)cn2)c1,172 to 174
13,CC(=O)Nc1cc(C(F)(F)F)ccc1S(=O)CC#N (centres undefined),149 to 151
14,CCCCCCCCN[C@@H]1Cc2cc(OC)c(OC)cc2[C@H]1O (relative stereo),133 to 135
15,O=C(O)CCc1ccc(C(=O)c2c(-c3ccc(O)cc3)sc3cc(O)ccc23)cc1,244 to 248
16,CC(C)(C)OC(=O)NCCc1ccc(N)cc1,71 to 73
17,CCCC(=O)c1ccc(N(CCO)CCO)cc1,72 to 75
18,Cn1c(C(F)(F)F)cc(=O)n(-c2ccc(Cl)c(C(=O)O)c2)c1=O,235 to 236
19,O=C(CCCC1CCCCC1)N[C@H]1CO[C@H]2[C@@H]1OC[C@@H]2NC(=O)C1CC1,182
20,O=Cc1cc2cc(F)c(F)cc2nc1Cl,226 to 229
21,Cc1cc(C)cc(C(=O)c2c(C(C)C)c(=O)[nH]c(=O)n2Cc2ccc(N)cc2)c1,173 to 175
22,COc1cc(C2C3=C(COC3=O)N(C)c3cc4c(cc32)OCO4)cc(OC)c1OC (centres undefined),226
23,COc1ccc2c(NC(N)=O)c(C(=O)Nc3ccc(Cl)cc3Cl)oc2c1,> 260
24,CCCCCCc1ccc(-c2cnn(C(C)(C)Cc3ccc(C)cc3)c2O)cc1,149 to 151
25,CC(C)Cn1c(CONC(=O)NC(C)C)nc2c(N)nc3ccccc3c21,218 to 219

row,Structure (SMILES),melting point [°C]
1,Cc1ccc(S(=O)(=O)n2c(CCCC(=O)O)cc3nc(Cl)ccc32)c2ccccc12,199 to 204
2,O=C(Nc1cnccn1)c1cn(-c2ccccc2)c2ccccc2c1=O,298 to 300
3,CC(C)(C)c1ccc(OCCOc2ccccc2N)c(N)c1,148 to 150
4,CNC(=O)C(=O)CCCCCON=Cc1ccc(-c2ccccc2)cc1,86 to 87
5,CCCCCCCCCCCCCCCCS[C@H]1CCCO[C@H]1CO (relative stereo),52 to 53
6,FC(F)(F)c1nc(Cl)sc1C(=S)OCc1ccccc1,61 to 63
7,CC(=O)c1cnn2ccccc12,96 to 97
8,c1ccc2c(c1)Nc1cc(-c3csc(CN4CCSCC4)n3)ccc1S2,229 to 231
9,Cc1ccc(S(=O)(=O)Nc2cc(C3CCCC3)c([N+](=O)[O-])cc2Br)cc1,122
10,Cc1noc(NS(=O)(=O)c2ccsc2C(=O)Nc2ccc(C(C)(C)C)cc2)c1Br,76 to 86
11,O=C(O)c1ccccc1-c1ccccc1CN1C(=O)c2ccccc2C1=O,198
12,CC(C)Oc1c(C(N)=O)n(C)c2ccc(OCc3ccccc3)cc12,164 to 166
13,O=C(O)/C=C\C(=O)Nc1ccc2c(=O)n3c(nc2c1)C(=Cc1ccccc1)CC3,210 to 230
14,COc1ccc2[nH]c(SCc3nccc(N4CCCCC4)c3Cl)nc2c1,145 to 147
15,c1ccc2nc(C3CCCS3)ccc2c1 (centres undefined),63
16,Cc1cc(-c2n[nH]c(-c3ccncc3)n2)ccn1,245 to 248
17,COCCN(C1CCS(=O)(=O)C1)S(=O)(=O)c1ccc(Nc2nccc(Nc3ccc(F)cc3)n2)cc1 (centres undefined),150
18,O=C(O)C(Cl)=C(Cl)C(=O)c1ccccc1,228
19,Cc1c(Br)cc2c(c1C)OCC2c1ccc(C(C)C)cc1 (centres undefined),114 to 115
20,CCOC(=O)C=Cc1cc(Cl)cc(Cl)c1,71 to 73
21,COC(=O)c1cn(C)cn1,72.5 to 81
22,S=C(Nc1cccc(Br)c1)N1CCCSC1c1ccccc1 (centres undefined),135 to 137
23,COc1ccc(C(=O)c2c[nH]c(Cc3ccccc3)n2)cc1,108 to 110
24,O=C(O)CCCOc1ccccc1OCc1ccccc1,75 to 76
25,CCOC(=O)c1ccc(CCN2CCN(C(=O)Cc3ccc(Cl)cc3)CC2)cc1,88 to 89

row,Structure (SMILES),melting point [°C]
1,O=C1c2ccccc2CN1C1CCN(C/C=C\CC2c3ccccc3-c3ccccc32)CC1,112 to 116
2,Cn1c([N+](=O)[O-])cnc1-c1nnc2ccc(N=CNC3CCCCC3)nn12,198 to 200
3,Cc1nnc(-c2ccc3occ(-c4ccc(SC(C)C)cc4)c3c2)o1,96 to 97
4,CCCCCCCCCCCC#Cc1cnccc1C=CC(=O)O,177 to 178
5,O=C1Nc2ccc(S(=O)(=O)N3CCC[C@H]3COc3ccccc3)cc2C1=O,204 to 206
6,COc1ccc(C(O)COc2ccc(C(=O)O)c(O)c2)cc1C12CC3CC(CC(C3)C1)C2 (centres undefined),178 to 179
7,NS(=O)(=O)c1ccc(-c2cccc(-c3nc(-c4ccc(C(F)(F)F)cc4)cc(C(F)(F)F)n3)c2)s1,204
8,COc1ccc(OC(CCCN2C3CCC2CNC3)c2ccc(C#N)cc2)cc1OC (centres undefined),38 to 43
9,CCCC(=O)NCC1CCc2c(OC)ccc3cccc1c23 (centres undefined),100
10,O=c1c2c(CCCc3ccccc3)n[nH]c2c2cccnc2n1-c1ccccc1,202 to 204
11,CCCNCc1nc(-c2ncn3c2[C@@H]2CCN2C(=O)c2c(Cl)cccc2-3)no1,237 to 239
12,CCCCc1nc(O)c(CC(=O)OCC)c(O)n1,260
13,CN1C(=O)CN(C(=O)N2CC(=O)N(C)c3ccc(Cl)cc3C2c2ccccc2)C(c2ccccc2)c2cc(Cl)ccc21 (centres undefined),263 to 266
14,C#CC1(OC(C)=O)CCC2C3CCC4=CC(=O)C=CC4(C)C3CCC21C (centres undefined),172 to 173
15,CCCCN(C(=O)CCc1ccc(OCCOC)cc1Oc1ncc(C(F)(F)F)cc1Cl)S(N)(=O)=O,102 to 103
16,O=C(O)Cc1cc(Cl)c(O)cc1F,137 to 138
17,Cc1cc(-c2ccccc2)co1,89 to 91
18,CC[C@H](C)[C@H](OCc1ccccc1)[C@H]1[C@H]([N+](=O)[O-])[C@@H]([C@@H](OCc2ccccc2)C(C)C)N[C@@H]1C(=O)O,172 to 174
19,C=CCNc1nc(NCC=C)nc(N2CCNCC2)n1,93 to 94.5
20,O=C1CCCc2nc(N3CCNCC3)ncc2N1,175 to 178
21,Cn1c(Cl)c(Cl)c(C(=O)c2cc(C(C)(C)C)c(O)c(C(C)(C)C)c2)c1Cl,155 to 156
22,CN(C)c1nnc(-c2ccc(S(C)=O)cc2)c(-c2ccc(S(C)=O)cc2)n1 (centres undefined),199 to 204
23,COc1ccccc1-n1ccc(=O)c(-c2ccnn2-c2ccccc2)n1,153 to 154
24,O=C1NC(=O)C(Cc2ccc(OCc3nc4ncccc4[nH]3)cc2)S1 (centres undefined),247 to 248
